Measured values reported in PubChem BioAssay (NCI).
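Compound exposure: 48 hours, 5 concentrations, 96-well plates. TGI is the concentration that stops growth completely.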

Tests used:
Test in all cases: growth of human tumour cells (NCI), 48 h
[1] = tested on: NCI/ADR-RES ovarian
[2] = tested on: HS 578T breast
[3] = tested on: M14 melanoma
[4] = tested on: HCT-15 colon
[5] = tested on: OVCAR-4 ovarian
[6] = tested on: RPMI-8226 leukemia
[7] = tested on: HOP-92 NSCLC
[8] = tested on: MDA-MB-231 breast
[9] = tested on: 786-0 renal
[10] = tested on: NCI-H23 lung
[11] = tested on: SNB-19 CNS
[12] = tested on: UACC-257 melanoma
[13] = tested on: CCRF-CEM leukemia
[14] = tested on: ACHN renal
[15] = tested on: T-47D breast
[16] = tested on: SR leukemia
[17] = tested on: LOX IMVI melanoma
[18] = tested on: UACC-62 melanoma
[19] = tested on: SK-MEL-5 melanoma
[20] = tested on: OVCAR-5 ovarian
[21] = tested on: K-562 leukemia
[22] = tested on: EKVX NSCLC
[23] = tested on: OVCAR-8 ovarian
[24] = tested on: A498 renal
[25] = tested on: SK-MEL-2 melanoma
[26] = tested on: HT29 colon
[27] = tested on: MALME-3M melanoma
[28] = tested on: HCT-116 colon
[29] = tested on: HCC-2998 colon
[30] = tested on: PC-3 prostate
[31] = tested on: A549 NSCLC
[32] = tested on: UO-31 renal
[33] = tested on: CAKI-1 renal
[34] = tested on: SF-539 CNS
[35] = tested on: SF-295 CNS
[36] = tested on: NCI-H226 lung
[37] = tested on: SN12C renal
[38] = tested on: U251 CNS
[39] = tested on: NCI-H522 lung
[40] = tested on: OVCAR-3 ovarian
[41] = tested on: KM12 colon
[42] = tested on: MCF7 breast
[43] = tested on: SK-OV-3 ovarian
[44] = tested on: MDA-N
[45] = tested on: TK-10 renal
[46] = tested on: BT-549 breast
[47] = tested on: COLO 205 colon
[48] = tested on: MOLT-4 leukemia
[49] = tested on: HL-60(TB) leukemia
[50] = tested on: SW-620 colon
[51] = tested on: HOP-62 NSCLC
[52] = tested on: SF-268 CNS
[53] = tested on: IGROV1 ovarian
[54] = tested on: NCI-H460 lung
[55] = tested on: SK-MEL-28 melanoma
[56] = tested on: MDA-MB-435
[57] = tested on: DU-145 prostate
[58] = tested on: RXF 393 renal
[59] = tested on: SNB-75 CNS

## CC1=C(Br)C(Br)=C(C)S1=O
[1]
  TGI: > 100 µM
[2]
  TGI: > 100 µM
[3]
  TGI: 33.8 µM
[4]
  TGI: > 100 µM
[5]
  TGI: > 100 µM
[6]
  TGI: 24 µM
[7]
  TGI: > 100 µM
[8]
  TGI: 61.5 µM
[9]
  TGI: 55.9 µM
[10]
  TGI: > 100 µM
[11]
  TGI: 63.7 µM
[12]
  TGI: 32.1 µM
[13]
  TGI: 6.66 µM
[14]
  TGI: 90.9 µM
[15]
  TGI: > 100 µM
[16]
  TGI: 19.3 µM
[17]
  TGI: 27.8 µM
[18]
  TGI: 85.8 µM
[19]
  TGI: 22.1 µM
[20]
  TGI: 37.4 µM
[21]
  TGI: > 100 µM
[22]
  TGI: 36.9 µM
[23]
  TGI: > 100 µM
[24]
  TGI: 96.5 µM
[25]
  TGI: 32.9 µM
[26]
  TGI: 45.4 µM
[27]
  TGI: 39.3 µM
[28]
  TGI: 18.2 µM
[29]
  TGI: 34.9 µM
[30]
  TGI: 48.8 µM
[31]
  TGI: 79.8 µM
[32]
  TGI: 39.3 µM
[33]
  TGI: 49.9 µM
[34]
  TGI: 27.7 µM
[35]
  TGI: 49.6 µM
[36]
  TGI: 50.2 µM
[37]
  TGI: 30.6 µM
[38]
  TGI: 26 µM
[39]
  TGI: 23.8 µM
[40]
  TGI: 23.9 µM
[41]
  TGI: 36.2 µM
[42]
  TGI: > 100 µM
[43]
  TGI: 65.5 µM
[44]
  TGI: 28.7 µM
[45]
  TGI: 48.5 µM
[46]
  TGI: 40.4 µM
[47]
  TGI: 5.82 µM
[48]
  TGI: 33.4 µM
[49]
  TGI: 18.1 µM
[50]
  TGI: > 100 µM
[51]
  TGI: 42.1 µM
[52]
  TGI: > 100 µM
[53]
  TGI: > 100 µM
[54]
  TGI: 34.7 µM
[55]
  TGI: 41.9 µM
[56]
  TGI: 30.9 µM

## CC(=O)OC1CC2c3cccc4c3C(CC2N(C)C1=O)CN4C(=O)c1ccccc1 (centres undefined)
[1]
  TGI: 45.1 µM
[3]
  TGI: 55.8 µM
[4]
  TGI: 46.2 µM
[5]
  TGI: 92.3 µM
[6]
  TGI: > 100 µM
[7]
  TGI: 34.8 µM
[8]
  TGI: 52.4 µM
[9]
  TGI: 52.2 µM
[10]
  TGI: 55.4 µM
[11]
  TGI: > 100 µM
[12]
  TGI: 49.9 µM
[13]
  TGI: > 100 µM
[14]
  TGI: 55.5 µM
[15]
  TGI: > 100 µM
[16]
  TGI: 94.8 µM
[17]
  TGI: 25.3 µM
[18]
  TGI: 50.3 µM
[19]
  TGI: 29.1 µM
[20]
  TGI: > 100 µM
[21]
  TGI: > 100 µM
[22]
  TGI: 83.1 µM
[23]
  TGI: 48.8 µM
[24]
  TGI: 74.6 µM
[25]
  TGI: 64.9 µM
[26]
  TGI: 49.9 µM
[57]
  TGI: 42.1 µM
[28]
  TGI: 32.8 µM
[29]
  TGI: 43.5 µM
[30]
  TGI: 79.6 µM
[31]
  TGI: 37.2 µM
[32]
  TGI: 42.1 µM
[33]
  TGI: 54.8 µM
[34]
  TGI: 93.9 µM
[35]
  TGI: 69.5 µM
[36]
  TGI: 96.5 µM
[37]
  TGI: 56.8 µM
[38]
  TGI: 53.3 µM
[39]
  TGI: 34.4 µM
[40]
  TGI: 30.1 µM
[41]
  TGI: 55.8 µM
[42]
  TGI: 62.9 µM
[43]
  TGI: 80.4 µM
[44]
  TGI: 77.1 µM
[45]
  TGI: > 100 µM
[46]
  TGI: 33.1 µM
[47]
  TGI: 56.1 µM
[48]
  TGI: > 100 µM
[49]
  TGI: 44 µM
[50]
  TGI: > 100 µM
[51]
  TGI: 77.4 µM
[52]
  TGI: > 100 µM
[53]
  TGI: 43.8 µM
[55]
  TGI: 77.1 µM
[56]
  TGI: 52.6 µM

## CNC(=S)N/N=C(C)\C(=N/NC(=S)NC)c1ccccc1
[1]
  TGI: > 100 µM
[2]
  TGI: 72.5 µM
[3]
  TGI: > 100 µM
[4]
  TGI: > 100 µM
[8]
  TGI: > 100 µM
[9]
  TGI: > 100 µM
[10]
  TGI: > 100 µM
[11]
  TGI: > 100 µM
[12]
  TGI: > 100 µM
[14]
  TGI: > 100 µM
[17]
  TGI: > 100 µM
[18]
  TGI: > 100 µM
[19]
  TGI: > 100 µM
[20]
  TGI: > 100 µM
[22]
  TGI: > 100 µM
[57]
  TGI: > 100 µM
[27]
  TGI: > 100 µM
[28]
  TGI: > 100 µM
[29]
  TGI: > 100 µM
[30]
  TGI: > 100 µM
[58]
  TGI: > 100 µM
[31]
  TGI: > 100 µM
[32]
  TGI: > 100 µM
[33]
  TGI: > 100 µM
[34]
  TGI: > 100 µM
[35]
  TGI: > 100 µM
[36]
  TGI: > 100 µM
[59]
  TGI: > 100 µM
[39]
  TGI: > 100 µM
[40]
  TGI: > 100 µM
[41]
  TGI: > 100 µM
[42]
  TGI: > 100 µM
[43]
  TGI: > 100 µM
[44]
  TGI: > 100 µM
[45]
  TGI: > 100 µM
[46]
  TGI: > 100 µM
[47]
  TGI: > 100 µM
[51]
  TGI: > 100 µM
[52]
  TGI: > 100 µM
[53]
  TGI: > 100 µM
[54]
  TGI: > 100 µM

## O=C1c2cc3c(cc2CC12Cc1cc4c(cc1C2=O)CCC4)CCCC3 (centres undefined)
[1]
  TGI: > 100 µM
[2]
  TGI: > 100 µM
[3]
  TGI: > 100 µM
[4]
  TGI: > 100 µM
[5]
  TGI: > 100 µM
[6]
  TGI: > 100 µM
[7]
  TGI: > 100 µM
[8]
  TGI: > 100 µM
[9]
  TGI: > 100 µM
[10]
  TGI: > 100 µM
[11]
  TGI: > 100 µM
[12]
  TGI: > 100 µM
[13]
  TGI: > 100 µM
[14]
  TGI: > 100 µM
[15]
  TGI: > 100 µM
[16]
  TGI: > 100 µM
[17]
  TGI: > 100 µM
[19]
  TGI: > 100 µM
[20]
  TGI: > 100 µM
[21]
  TGI: > 100 µM
[22]
  TGI: > 100 µM
[23]
  TGI: > 100 µM
[24]
  TGI: > 100 µM
[25]
  TGI: > 100 µM
[26]
  TGI: > 100 µM
[57]
  TGI: > 100 µM
[27]
  TGI: > 100 µM
[28]
  TGI: > 100 µM
[29]
  TGI: > 100 µM
[30]
  TGI: > 100 µM
[58]
  TGI: > 100 µM
[31]
  TGI: > 100 µM
[32]
  TGI: > 100 µM
[33]
  TGI: > 100 µM
[34]
  TGI: > 100 µM
[35]
  TGI: > 100 µM
[38]
  TGI: > 100 µM
[59]
  TGI: > 100 µM
[39]
  TGI: > 100 µM
[40]
  TGI: > 100 µM
[42]
  TGI: > 100 µM
[43]
  TGI: > 100 µM
[44]
  TGI: > 100 µM
[45]
  TGI: > 100 µM
[48]
  TGI: > 100 µM
[49]
  TGI: > 100 µM
[50]
  TGI: > 100 µM
[51]
  TGI: > 100 µM
[52]
  TGI: > 100 µM
[53]
  TGI: > 100 µM
[54]
  TGI: > 100 µM
[55]
  TGI: > 100 µM
[56]
  TGI: > 100 µM
